This note sets out measurements from US20230114728A1 (Venatorx Pharmaceuticals, Inc., priority 2019, published 2023).

One test deals with T1, N. gonorrhoeae PBP2 (Neisseria gonorrhoeae, UniProt P08149).
T1 construct: made in house
In words: Bocillin-FL fluorescence polarization competition binding assay, N. gonorrhoeae PBP2. Particulars: fluorescence polarization competition binding assay using Bocillin-FL; read-out: N. gonorrhoeae PBP2 Potency. An excerpt: Example I: Experimental Method for Penicillin-Binding Protein Binding Assays with Bocillin-FL Via Fluorescence Polarization
To determine the ability of boronic acid-based test PBP inhibitors to bind Penicillin Binding Proteins (PBPs), Bocillin-FL (fluorescently-labeled penicillin V; ThermoFisher Scientific) was used in a fluorescence polarization (FP) competition binding assay to assess inhibitor binding to PBP2, PBP3 or PBP4 from Escherichia coli (K12), PBP3 from Pseudomonas aeruginosa (PA01), PBP1a, PBP2 and PBP3 from Acinetobacter baumannii (ATCC 19606), and PBP2 from Neiserria gonorrheae (FA19). PBPs were cloned and purified as described previously (E. coli PBPs, King, D. T, et al., ACS Infectious Diseases 2015, 1, 175-184; P. aeruginosa PBP3, Han et. al., PNAS 2010, 107 (51), 22002-22007; A. baumannii PBPs, Penwell et. al., Antimicrob. Agents Chemother. 2015, 59 (3), 1680-1689; N. gonorrhoeae PBP2, Singh et. al., J Biol. Chem. 2019, 294 (38), 14020-14032). To establish assay conditions for competition binding, enzyme titration/saturation binding experiments were initially performed. Bocillin-FL was prepared at 0.2 μM in a buffer comprised of 50 mM Hepes (pH 8.0), 300 mM NaCl and 5% (v/v) glycerol for reactions with E. coli, P. aeruginosa and N. gonorrhoeae PBPs, and 25 mM Tris (pH 8.0), 200 mM NaCl and 10% (v/v) glycerol and 0.005% (v/v) Tween 20 for reactions with A. baumannii PBPs. Saturation binding was performed by mixing 40 μl of PBP solutions ranging in concentrations from 0-24 μM with 40 μl of the 0.2 μM Bocillin-FL solution, in individual wells of a black 384-well microplate. FP was measured immediately upon mixing (Excitation, 490 nm; Emission, 520 nm; g-factor, 0.96), using a Cytation3 (BioTek) microplate reader and measured continuously for up to 120 minutes. […] The competition binding assay (80 μl final volume) was validated using beta-lactams and PBPs at final concentrations of: 1.5 μM, E. coli PBP3; 0.75 μM, P. aeruginosa PBP3; 1 μM A. baumannii PBP1a; 2.5 μM A. baumannii PBP2; 0.2 μM A. baumannii PBP3; and […] N. gonorrhoeae PBP2. Bocillin-FL was at 0.1 μM (0.05 μM with A. baumannii PBP1a) and beta-lactam concentrations ranged from 0-1000 μM. […] Bocillin-FL was added and the FP immediately measured for up to 60 minutes (90 minutes for E. coli PBP2). […] The beta-lactam potency was reported as the concentration of beta-lactam required to reduce the amount of PBP bound-Bocillin-FL by 50% (EC50). […] Binding assays for boronic acid PBP inhibitors were performed in an identical fashion for the respective PBPs

In another test the test system is N. gonorrhoeae FA1090. In words: Liquid broth MIC in Fastidious broth. It is filed as cell-based. Particulars: Neisseria gonorrhoeae; N. gonorrhoeae strain FA1090; Fastidious broth; read-out: Minimum Inhibitory Concentration, N. gonorrhoeae FA1090. The method in brief:
(§1)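 Colonies were swabbed from chocolate agar after 24 h growth and standardised by optical density at 600 nm. Compounds were serially diluted twofold in Fastidious broth, and bacteria added to give 5×10^5 CFU/mL. After about 24 h at 36 °C in 5% CO2, the lowest concentration allowing under 10% growth was taken as MIC.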

The test system of test [1] is N. gonorrhoeae ATCC 49226. Nature of the test: Liquid broth MIC in Fastidious broth. The test is classed as cell-based. Particulars: Neisseria gonorrhoeae, ATCC49226; N. gonorrhoeae strain ATCC 49226; Fastidious broth; read-out: Minimum Inhibitory Concentration, N. gonorrhoeae ATCC 49226. In outline:
as §1

The next test deals with N. gonorrhoeae WHO Z. Nature of the test: Liquid broth MIC in Fastidious broth. The test is classed as cell-based. Particulars: Neisseria gonorrhoeae, read-out: Minimum Inhibitory Concentration, N. gonorrhoeae WHO Z. The method in brief: as §1
In the next test the test system is N. gonorrhoeae WHO G. Nature of the test: Liquid broth MIC in Fastidious broth. Particulars: Neisseria gonorrhoeae; N. gonorrhoeae strain WHO G; Fastidious broth; read-out: Minimum Inhibitory Concentration, N. gonorrhoeae WHO G. It is filed as cell-based. In outline: as §1
Another test relates to N. gonorrhoeae WHO Q. Nature of the test: Liquid broth MIC in Fastidious broth. Particulars: Neisseria gonorrhoeae, read-out: Minimum Inhibitory Concentration, N. gonorrhoeae WHO Q. The test is classed as cell-based. In outline:
as §1

In the next test the test system is N. gonorrhoeae H041. In words: Liquid broth MIC in Fastidious broth. The test is classed as cell-based. Particulars: Neisseria gonorrhoeae, H041, read-out: Minimum Inhibitory Concentration, N. gonorrhoeae H041. In outline:
as §1

The test system of the next test is N. gonorrhoeae WHO K. Nature of the test: Liquid broth MIC in Fastidious broth. The test is classed as cell-based. Particulars: Neisseria gonorrhoeae, read-out: Minimum Inhibitory Concentration, N. gonorrhoeae WHO K. In outline: as §1
Another test concerns the target T2, E. coli K12 PBP3 (Escherichia coli, UniProt P0AD68).
T2 construct: made in house
In words: biochemical. The test is classed as binding. The method in brief: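 A. baumannii PBP2 (2.5 μM) and PBP3 (0.2 μM) were run in 25 mM Tris pH 8.0 buffer with Tween 20; E. coli PBP3 (1.5 μM) and N. gonorrhoeae PBP2 ([…]) in 50 mM Hepes pH 8.0 buffer.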

The target of another test is T3, P. aeruginosa PBP3 (Pseudomonas aeruginosa, UniProt G3XD46).
T3 construct: made in house
T3 sequence (G3XD46 whole entry): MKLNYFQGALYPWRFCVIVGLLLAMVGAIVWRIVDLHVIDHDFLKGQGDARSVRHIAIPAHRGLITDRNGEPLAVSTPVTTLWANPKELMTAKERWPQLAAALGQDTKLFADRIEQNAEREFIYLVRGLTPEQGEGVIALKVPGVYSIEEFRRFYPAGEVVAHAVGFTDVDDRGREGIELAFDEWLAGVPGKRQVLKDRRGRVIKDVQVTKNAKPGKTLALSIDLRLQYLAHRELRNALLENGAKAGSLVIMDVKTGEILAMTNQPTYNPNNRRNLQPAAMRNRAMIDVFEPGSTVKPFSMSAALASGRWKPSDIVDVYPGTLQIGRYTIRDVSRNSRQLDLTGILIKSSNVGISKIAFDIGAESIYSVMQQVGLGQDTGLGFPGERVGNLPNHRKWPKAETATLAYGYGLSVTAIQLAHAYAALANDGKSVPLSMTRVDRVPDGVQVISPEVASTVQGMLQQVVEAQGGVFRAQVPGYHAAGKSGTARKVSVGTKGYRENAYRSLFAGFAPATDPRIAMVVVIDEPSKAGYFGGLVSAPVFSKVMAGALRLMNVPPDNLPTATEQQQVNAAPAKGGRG
Nature of the test: Bocillin-FL fluorescence polarization competition binding assay, P. aeruginosa PBP3. Particulars: fluorescence polarization competition binding assay using Bocillin-FL. The method in brief: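 Inhibitor competition with Bocillin-FL for P. aeruginosa PBP3 was followed by fluorescence polarization on a Cytation3 (BioTek) reader, using g-factor 0.96, 490 nm excitation and 520 nm emission. The enzyme was at 0.75 μM and the probe at 0.1 μM in Hepes/NaCl/glycerol buffer, 80 μl per well. FP was recorded immediately after probe addition for up to 60 minutes. Potency was expressed as EC50, the concentration that reduces bound probe by 50%.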
(In general: In fluorescence polarisation assays a small probe gives low polarisation when free and higher when bound to something large.)

SMILES strings stand for the structures. Converted amounts (≈) assume the structure as drawn. Some results are limits rather than exact numbers.

T1 sequence (P08149 whole entry): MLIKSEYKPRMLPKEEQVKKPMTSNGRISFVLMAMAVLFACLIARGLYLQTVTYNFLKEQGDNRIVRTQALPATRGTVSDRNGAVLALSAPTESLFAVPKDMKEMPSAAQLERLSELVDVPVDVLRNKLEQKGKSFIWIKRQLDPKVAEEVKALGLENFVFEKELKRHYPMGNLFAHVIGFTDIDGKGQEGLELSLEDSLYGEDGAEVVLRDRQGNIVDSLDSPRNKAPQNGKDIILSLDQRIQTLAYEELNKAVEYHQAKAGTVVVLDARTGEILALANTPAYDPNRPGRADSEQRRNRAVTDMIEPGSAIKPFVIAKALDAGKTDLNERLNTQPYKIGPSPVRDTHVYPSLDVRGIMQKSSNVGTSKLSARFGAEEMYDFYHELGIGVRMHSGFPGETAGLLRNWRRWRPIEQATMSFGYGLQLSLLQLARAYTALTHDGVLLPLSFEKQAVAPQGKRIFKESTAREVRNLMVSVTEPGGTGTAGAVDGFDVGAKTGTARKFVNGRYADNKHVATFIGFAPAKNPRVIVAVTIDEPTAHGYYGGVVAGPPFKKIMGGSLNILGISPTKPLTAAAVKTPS
T2 sequence (P0AD68 1-577): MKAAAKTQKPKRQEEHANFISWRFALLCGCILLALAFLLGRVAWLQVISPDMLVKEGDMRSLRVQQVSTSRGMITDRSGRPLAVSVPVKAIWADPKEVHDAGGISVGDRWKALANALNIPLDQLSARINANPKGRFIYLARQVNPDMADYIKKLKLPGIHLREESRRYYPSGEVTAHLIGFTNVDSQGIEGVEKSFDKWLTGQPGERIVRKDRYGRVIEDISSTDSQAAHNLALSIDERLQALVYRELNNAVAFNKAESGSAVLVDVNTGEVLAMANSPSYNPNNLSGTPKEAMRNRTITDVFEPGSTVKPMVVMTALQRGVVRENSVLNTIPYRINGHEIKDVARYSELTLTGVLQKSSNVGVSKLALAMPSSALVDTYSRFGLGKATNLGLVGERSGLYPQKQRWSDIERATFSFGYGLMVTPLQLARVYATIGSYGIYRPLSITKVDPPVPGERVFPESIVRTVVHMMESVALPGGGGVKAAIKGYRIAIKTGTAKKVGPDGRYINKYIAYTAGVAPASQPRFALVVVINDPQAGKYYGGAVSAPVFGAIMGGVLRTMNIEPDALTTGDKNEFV

On to `CCN1CCN(C(=O)N[C@@H](C(=O)N[C@H]2Cc3cccc(C(=O)O)c3OB2O)c2ccc(C(=O)O)c(F)c2)C(=O)C1=O` (single isomer, unassigned) [Example 146], for which the values for the EC50 at N. gonorrhoeae PBP2 and at E. coli K12 PBP3 were below 10 µM and below 30 µM, respectively. Also, the MIC in the test with N. gonorrhoeae FA1090 was below 0.125 µg/mL; in test [1], 1 to 2 µg/mL (≈ 1.75 to 3.51 µM); in the test with N. gonorrhoeae WHO Z, 1 to 2 µg/mL (≈ 1.75 to 3.51 µM); with N. gonorrhoeae WHO G, 0.25 to 0.5 µg/mL (≈ 0.438 to 0.877 µM); with N. gonorrhoeae WHO Q it was 1 to 2 µg/mL (≈ 1.75 to 3.51 µM); with N. gonorrhoeae H041, 4 to 8 µg/mL (≈ 7.01 to 14 µM). Also, the MIC in the test with N. gonorrhoeae WHO K lay in the range of 1 to 2 µg/mL (≈ 1.75 to 3.51 µM). For the same compound, the “P. aeruginosa PBP3 Potency” value on P. aeruginosa PBP3 was “D (D represents a potency <10 μM)”.

Turning to `CCN1CCN(C(=O)N[C@H](C(=O)N[C@H]2Cc3cccc(C(=O)O)c3OB2O)c2ccc(C(=O)O)c(F)c2)C(=O)C1=O` (single isomer, unassigned) [Example 147], the EC50 at N. gonorrhoeae PBP2 is below 10 µM; on E. coli K12 PBP3, below 30 µM. Besides, the MIC in the test with N. gonorrhoeae FA1090 was below 0.125 µg/mL; in test [1], 1 to 2 µg/mL (≈ 1.75 to 3.51 µM); in the test with N. gonorrhoeae WHO Z it was 0.25 to 0.5 µg/mL (≈ 0.438 to 0.877 µM); with N. gonorrhoeae WHO G it was 0.25 to 0.5 µg/mL (≈ 0.438 to 0.877 µM); in the test with N. gonorrhoeae WHO Q, 0.25 to 0.5 µg/mL (≈ 0.438 to 0.877 µM); with N. gonorrhoeae H041, 1 to 2 µg/mL (≈ 1.75 to 3.51 µM). The MIC in the test with N. gonorrhoeae WHO K was in the range of 0.25 to 0.5 µg/mL (≈ 0.438 to 0.877 µM). The “P. aeruginosa PBP3 Potency” value at P. aeruginosa PBP3 is on record as “D (D represents a potency <10 μM)”.

Regarding `CCN1CCN(C(=O)N[C@@H](C(=O)N[C@H]2Cc3cccc(C(=O)O)c3OB2O)c2cc(F)c(C(=O)O)cc2Cl)C(=O)C1=O` (single isomer, unassigned) [Example 148], the figures for the EC50 at N. gonorrhoeae PBP2 and at E. coli K12 PBP3 were below 10 µM and below 30 µM, respectively. Further, the MIC was in the range of 0.25 to 0.5 µg/mL (≈ 0.413 to 0.827 µM) in the test with N. gonorrhoeae FA1090; 4 to 8 µg/mL (≈ 6.61 to 13.2 µM) in [1]; 4 to 8 µg/mL (≈ 6.61 to 13.2 µM) in the test on N. gonorrhoeae WHO Z; 1 to 2 µg/mL (≈ 1.65 to 3.31 µM) in the test with N. gonorrhoeae WHO G; 4 to 8 µg/mL (≈ 6.61 to 13.2 µM) in the test on N. gonorrhoeae WHO Q; 16 to 32 µg/mL (≈ 26.5 to 52.9 µM) in the test with N. gonorrhoeae H041. Also, the MIC in the test with N. gonorrhoeae WHO K is 4 to 8 µg/mL (≈ 6.61 to 13.2 µM). Besides, at P. aeruginosa PBP3, the “P. aeruginosa PBP3 Potency” value is “D (D represents a potency <10 μM)”.

As to `CCN1CCN(C(=O)N[C@H](C(=O)N[C@H]2Cc3cccc(C(=O)O)c3OB2O)c2cc(F)c(C(=O)O)cc2Cl)C(=O)C1=O` (single isomer, unassigned) [Example 149], the EC50 lay within 30 to 100 µM at N. gonorrhoeae PBP2 and 30 to 500 µM on E. coli K12 PBP3. In addition, the MIC in the test with N. gonorrhoeae FA1090 is 4 to 8 µg/mL (≈ 6.61 to 13.2 µM); in [1], above 64 µg/mL; in the test on N. gonorrhoeae WHO Z, 16 to 32 µg/mL (≈ 26.5 to 52.9 µM); with N. gonorrhoeae WHO G it was 16 to 32 µg/mL (≈ 26.5 to 52.9 µM); with N. gonorrhoeae WHO Q, above 64 µg/mL; in the test with N. gonorrhoeae H041, above 64 µg/mL. Further, in the test with N. gonorrhoeae WHO K, the MIC is above 64 µg/mL. For the same compound, the “P. aeruginosa PBP3 Potency” value on P. aeruginosa PBP3 is “C (C represents a potency between 10 and 30 μM)”.

With `CCN1CCN(C(=O)NC(C(=O)N[C@H]2Cc3cccc(C(=O)O)c3OB2O)c2c(F)cc(N)cc2F)C(=O)C1=O` (stereo partly drawn) [Example 181, (3R)-3-(2-(4-amino-2,6-difluorophenyl)-2-(4-ethyl-2,3-dioxopiperazine-1-carboxamido)acetamido)-2-hydroxy-3,4-dihydro-2H-benzo[e][1,2]oxaborinine-8-carboxylic acid], the EC50 on N. gonorrhoeae PBP2 was above 100 µM; on E. coli K12 PBP3, below 30 µM. Also, the MIC in the test with N. gonorrhoeae FA1090 was 0.25 to 0.5 µg/mL (≈ 0.447 to 0.894 µM); in test [1] it was 4 to 8 µg/mL (≈ 7.15 to 14.3 µM); with N. gonorrhoeae WHO Z, 16 to 32 µg/mL (≈ 28.6 to 57.2 µM); in the test on N. gonorrhoeae WHO G, 1 to 2 µg/mL (≈ 1.79 to 3.58 µM); with N. gonorrhoeae WHO Q it was 16 to 32 µg/mL (≈ 28.6 to 57.2 µM); with N. gonorrhoeae H041 it was above 64 µg/mL. For the same compound, the MIC with N. gonorrhoeae WHO K lay in the range of 16 to 32 µg/mL (≈ 28.6 to 57.2 µM).
